This passage reports IC50 results from patent publication EP1210350B1, “WATER SOLUBLE SDZ-RAD ESTERS” (Wyeth, priority 1999, dated 2001).

The assay relates to U87MG Human Glioblastoma (ATCC # HTB-14). The assay is described as follows: 3H thymidine incorporation in U87MG human glioblastoma cells. Type of assay: cell-based. To be noted: 48 hours incubation with compound, 3H thymidine for the last 5 hours. As for the experimental part:
U87MG Human Glioblastoma (ATCC # HTB-14)
3H Thymidine Incorporation Protocol
• Growth Medium: BRL Minimum Essential Medium with Earle Salts (500 ml) + 5mLBRL MEM Non-Essential Amino Acids (10mM) +5 mLBRL Penicillin-Streptomycin (10000u/ml,10000ug/ml) +5mLBRL Na Pyruvate Solution (100mM) +5mLBRL L-Glutamine 200mM +50mLBRL Fetal Bovine Serum (Qualified) • Assay: • 1. Cells were trypsinized and plated at a concentration of 10^4 cells/well in a final volume of 200 µl growth medium in 96-well flat bottom plates and allowed to adhere for 24 hours at 37°C. • 2. The media was removed by aspiration with care to not disturb the cell monolayer. 200 µl of fresh growth media was added per well, allowing enough wells for samples to be run in triplicate. Compounds were added in 10 µl PBS solutions and incubated for another 48 hours at 37°C. • 3. During the last 5 hours of incubation, plates were labeled with 1µCi 3H thymidine per well. (NEN thymidine, catalog # NET-027, 6.7 Ci/mmole). The 1µCi was added in 10 µl of PBS (on the day of harvest.). The plates were returned to the incubator for the last 5 hours. • 4. The radioactive media was removed by aspiration, with care not to disturb the cell monolayer. 50 µl of BRL 10X Trypsin was added to each well, followed by incubation at 37°C for 10 minutes or until the monolayer was loosened from the well bottom. […] Mats were counted in a Wallac Betaplate counter.

≈ marks a conversion by molar mass, not a printed value. Like-named read-outs stand apart in the source and are kept apart here.

As for `CO[C@H]1C[C@@H]2CC[C@@H](C)[C@@](O)(O2)C(=O)C(=O)N2CCCC[C@H]2C(=O)O[C@H]([C@H](C)C[C@@H]2CC[C@@H](O)[C@H](OC)C2)CC(=O)[C@H](C)/C=C(\C)[C@@H](O)[C@@H](OC)C(=O)[C@H](C)C[C@H](C)/C=C/C=C/C=C/1C` [Rapamycin], for the setting “Homo sapiens, U-87 MG, read-out: IC50”, the concentration for half-maximal inhibition (IC50) (in general, the concentration that gives 50% inhibition) turned out to be 0.5 ng/mL (≈ 0.547 nM). Regarding `CO[C@H]1C[C@@H]2CC[C@@H](C)[C@@](O)(O2)C(=O)C(=O)N2CCCC[C@H]2C(=O)O[C@H]([C@H](C)C[C@@H]2CC[C@@H](OCCO)[C@H](OC)C2)CC(=O)[C@H](C)/C=C(\C)[C@@H](O)[C@@H](OC)C(=O)[C@H](C)C[C@H](C)/C=C/C=C/C=C/1C` [SDZ-RAD, 40-O-(2-hydroxy)ethyl-rapamycin], the half-maximal inhibitory concentration (IC50) came out at 2.0 ng/mL (≈ 2.09 nM).
